Reference: patent publication US12421242B2, “Substituted tetrahydropyrrolo-pyridinone compounds and their use in treating medical conditions” (Karuna Therapeutics, Inc., priority 2022, dated 2025)

Legend:
hM4 receptors = target: T1, hM4 receptors (Homo sapiens, UniProt P08173); experiment: Human M4 PAM pERK assay; type: cell-based; conditions: PAM mode
T1 construct: expressed in transfected cells; host or cells: CHO cells
T1 sequence (P08173 1-479): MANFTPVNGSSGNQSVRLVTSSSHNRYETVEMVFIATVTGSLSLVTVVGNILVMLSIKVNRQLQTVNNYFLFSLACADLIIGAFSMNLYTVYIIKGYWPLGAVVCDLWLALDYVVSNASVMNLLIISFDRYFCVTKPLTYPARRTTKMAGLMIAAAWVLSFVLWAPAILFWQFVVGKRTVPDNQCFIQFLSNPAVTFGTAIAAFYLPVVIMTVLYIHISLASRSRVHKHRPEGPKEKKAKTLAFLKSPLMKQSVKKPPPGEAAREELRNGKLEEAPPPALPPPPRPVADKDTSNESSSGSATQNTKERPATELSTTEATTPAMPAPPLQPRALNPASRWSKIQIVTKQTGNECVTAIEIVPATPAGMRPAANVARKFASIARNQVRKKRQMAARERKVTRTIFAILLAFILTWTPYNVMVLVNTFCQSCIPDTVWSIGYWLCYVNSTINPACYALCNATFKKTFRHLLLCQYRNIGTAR
Description: (§1) Chinese hamster ovary (CHO) cells expressing either hM4 or rM4 receptors were frozen in assay ready vials (5×10^6 cells/vial) after bulking-up in culture. The day before an assay, vial(s) were thawed and cells seeded in 384 well white proxiplates at 1000/well for hM4 cells and at 2000/well for rM4 cells, in 10 μL of growth media (Hams/F12 with glutamax and 10% FCS) and incubated overnight at 37° C./5% CO2.
(§2) On the following morning, the growth media was removed by ‘flicking out’ over a bin, patting the inverted plate onto tissue, and then replacing with 10 μL of wash media (Hams/F12 with glutamax and 8 mM HEPES, NB: serum free). Then, the wash media was removed in the same way and replaced with 8 μL/well of the serum free media. Plates were then re-incubated for a further 4 hours at 37° C./5% CO2.
(§3) Compounds for testing were solubilized to 10 mM in DMSO and compound addition plates, consisting of ten-point concentration response curves (CRC) in duplicate points (10 μM top concentration, […]), were prepared by acoustic dispensing and the compound management group.
(§4) After the 4-hour incubation in serum free media, a 4 μL aliquot of the 3× compound solution containing an EC20 of acetylcholine (10 nM final concentration) was added to the cell plate using a 384 well plate to plate transfer. Then, the plate lid was replaced, and the cells incubated for 5 mins at 37° C./5% CO2. Following this final incubation, all cellular processes were stopped by the addition of 4 μL/well of lysis and blocking buffer and plates were incubated for 30 minutes at RT on an orbital shaker (gentle setting). Then, a final addition of 4 μL/well of antibody detection mix, containing both the Europium-Cryptate (donor) and d2 (acceptor) tagged detection components, was added followed by a further 2-hour incubation at RT, and then the plate was read using a TR-FRET (time resolved fluorescence resonance energy transfer) based protocol.

rM4 receptors = target: T2, rM4 receptors (Rattus norvegicus, UniProt P08485); experiment: Rat M4 PAM pERK assay; type: cell-based; conditions: PAM mode
T2 construct: expressed in transfected cells; host or cells: CHO cells
T2 sequence (P08485 1-478): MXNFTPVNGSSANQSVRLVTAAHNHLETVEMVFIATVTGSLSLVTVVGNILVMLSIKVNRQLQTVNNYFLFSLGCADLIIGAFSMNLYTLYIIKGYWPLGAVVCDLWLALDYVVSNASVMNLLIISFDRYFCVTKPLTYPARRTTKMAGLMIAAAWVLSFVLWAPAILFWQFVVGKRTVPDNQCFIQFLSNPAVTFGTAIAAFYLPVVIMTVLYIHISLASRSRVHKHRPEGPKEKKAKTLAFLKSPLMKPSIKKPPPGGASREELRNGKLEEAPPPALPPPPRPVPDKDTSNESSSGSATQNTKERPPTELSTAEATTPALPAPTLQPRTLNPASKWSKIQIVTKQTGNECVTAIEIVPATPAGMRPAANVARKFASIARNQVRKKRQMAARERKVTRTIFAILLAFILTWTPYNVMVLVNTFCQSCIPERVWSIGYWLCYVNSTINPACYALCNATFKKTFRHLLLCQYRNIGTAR
Description: as §1, §2, §3, §4

Compound | EC50 (hM4 receptors) [nM] | EC50 (rM4 receptors) [nM]
Cc1c2c(n(C)c(=O)c1Cl)CN(C(=O)c1ccc3c(c1)COC3)C2 [Compound I-50] | 100 to 500 | 100 to 500
Cc1cc(=O)n(C)c2c1C(C)N(C(=O)c1cnn(C(F)(F)F)c1)C2 (stereo not shown) [Compound I-93] | < 100 | > 2000
CSc1c2c(n(C)c(=O)c1C)CN(C(=O)c1cnc(CC3CC3)s1)C2 [Compound I-91] | 100 to 500 | > 2000
Cc1c2c(n(CC3CC3)c(=O)c1Cl)CN(C(=O)c1cnc(CC3CC3)s1)C2 [Compound I-69, 3-Chloro-1-(cyclopropylmethyl)-6-(2-(cyclopropylmethyl)thiazole-5-carbonyl)-4-methyl-1,5,6,7-tetrahydro-2H-pyrrolo[3,4-b]pyridin-2-one] | 100 to 500 | > 2000
Cc1c2c(n(C)c(=O)c1Cl)CN(C(=O)c1cc(CC(F)(F)F)on1)C2 [Compound I-58, 3-Chloro-1,4-dimethyl-6-(5-(2,2,2-trifluoroethyl)isoxazole-3-carbonyl)-1,5,6,7-tetrahydro-2H-pyrrolo[3,4-b]pyridin-2-one] | 500 to 2000 | > 2000
Cc1cc(=O)n(C)c2c1CN(C(=O)c1cnn(C)c1)C2C (single isomer, unassigned) [Compound I-107, 1,4,7-Trimethyl-6-(1-methyl-1H-pyrazole-4-carbonyl)-1,5,6,7-tetrahydro-2H-pyrrolo[3,4-b]pyridin-2-one] | > 2000 | > 2000
Cc1c2c(n(C)c(=O)c1Cl)CN(C(=O)c1cnn3c1CCC3)C2 [Compound I-37] | > 2000 | > 2000
Cc1c2c(n(C)c(=O)c1Cl)CN(C(=O)c1cnc(C3CCC3)s1)C2 [Compound I-35] | 100 to 500 | > 2000
Cc1c2c(n(C)c(=O)c1Cl)CN(C(=O)c1cnn(CC(C)C)c1)C2 [Compound I-5] | 500 to 2000 | > 2000
Cc1c2c(n(C)c(=O)c1Cl)CN(C(=O)c1ccc3cncn3c1)C2 [Compound I-47] | < 100 | 500 to 2000
Cc1cc(=O)n(C)c2c1C(C)N(C(=O)c1ccc3nc(C(F)(F)F)sc3c1)C2 (single isomer, unassigned) [Compound I-101] | 100 to 500 | > 2000
Cc1c2c(n(C)c(=O)c1Cl)CN(C(=O)c1cnn(C(F)F)c1)[C@@H]2C [Compound I-77] | < 100 | 100 to 500
Cc1c2c(n(C)c(=O)c1Cl)CN(C(=O)c1ccn(C(F)(F)F)n1)C2 [Compound I-16] | 100 to 500 | > 2000
Cc1c2c(n(C)c(=O)c1Cl)CN(C(=O)c1cnn(C(C)C)c1)C2 [Compound I-10] | 100 to 500 | > 2000
Cc1c2c(n(C)c(=O)c1C(F)(F)F)CN(C(=O)c1cnn(C)c1)C2 [Compound I-110, 1,4-Dimethyl-6-(1-methyl-1H-pyrazole-4-carbonyl)-3-(trifluoromethyl)-1,5,6,7-tetrahydro-2H-pyrrolo[3,4-b]pyridin-2-one] | 100 to 500 | > 2000
Cc1c2c(n(C)c(=O)c1Cl)CN(C(=O)c1cnn(CC3COC3)c1)C2 [Compound I-54] | 100 to 500 | > 2000
Cc1c2c(n(C)c(=O)c1Cl)CN(C(=O)c1cnn(CC3(C)COC3)c1)C2 [Compound I-53, 3-Chloro-1,4-dimethyl-6-(1-((3-methyloxetan-3-yl)methyl)-1H-pyrazole-4-carbonyl)-1,5,6,7-tetrahydro-2H-pyrrolo[3,4-b]pyridin-2-one] | > 2000 | > 2000
COc1c2c(n(C)c(=O)c1C)CN(C(=O)c1cnc(CC3CC3)s1)C2 [Compound I-86] | 100 to 500 | > 2000
Cc1c2c(n(C)c(=O)c1Cl)CN(C(=O)c1cnn(CC3CCOC3)c1)C2 (stereo not shown) [Compound I-56] | > 2000 | > 2000
Cc1c2c(n(C)c(=O)c1Cl)CN(C(=O)c1cnn(CC3CC3)c1)C2 [Compound I-27] | 500 to 2000 | > 2000
Cc1c2c(n(C)c(=O)c1Cl)CN(C(=O)c1ccc3nc(C4CCC4)sc3c1)C2 [Compound I-51, 3-Chloro-6-(2-cyclobutylbenzo[d]thiazole-6-carbonyl)-1,4-dimethyl-1,5,6,7-tetrahydro-2H-pyrrolo[3,4-b]pyridin-2-one] | < 100 | 100 to 500
Cc1c2c(n(C)c(=O)c1Cl)CN(C(=O)c1cn3c(n1)COCC3)C2 [Compound I-25] | 500 to 2000 | > 2000
Cc1c2c(n(C)c(=O)c1Cl)CN(C(=O)c1cnn(C)c1)C2 [Compound I-2] | < 100 | > 2000
Cc1c2c(n(C)c(=O)c1Cl)CN(C(=O)c1cnn(Cc3cccnc3)c1)C2 [Compound I-59, 3-Chloro-1,4-dimethyl-6-(1-(pyridin-3-ylmethyl)-1H-pyrazole-4-carbonyl)-1,5,6,7-tetrahydro-2H-pyrrolo[3,4-b]pyridin-2-one] | 500 to 2000 | > 2000
Cc1c2c(n(C)c(=O)c1C)CN(C(=O)c1cnn(C(F)(F)F)c1)[C@@H]2C [Compound I-78, (R)-1,3,4,5-Tetramethyl-6-(1-(trifluoromethyl)-1H-pyrazole-4-carbonyl)-1,5,6,7-tetrahydro-2H-pyrrolo[3,4-b]pyridin-2-one] | < 100 | 100 to 500
Cc1c2c(n(C)c(=O)c1Cl)CN(C(=O)c1cnn(Cc3ccc(C(F)(F)F)nc3)c1)C2 [Compound I-57] | > 2000 | > 2000
